Assay results: patent US20260053811A1, “METHODS OF TREATING HYPERTENSION IN OBESE SUBJECTS” (Mineralys Therapeutics, Inc., priority 2022, published 2026)

Tested on: hypertensive subjects
Assay: Seated automated office blood pressure (AOBP) in randomized, placebo-controlled, dose-ranging study
Type: in vivo, human
Settings: for Placebo-adjusted reduction in AOBP SBP, exploratory MMRM analysis by BMI: data not shown; for Mean (SD) Automated Office-Measured Systolic Blood Pressure at Wk 8 / Mean (SD) Change from Baseline at Week 8 in Automated Office-Measured Systolic Blood Pressure / Mean (SD) Automated Office-Measured Diastolic Blood Pressure at Wk 8 / Mean (SD) Change from Baseline at Week 8 in Automated Office-Measured Diastolic Blood Pressure: Part 1, 12.5 mg BID
Method: A randomized, double-blinded, placebo-controlled, dose-ranging, multicenter study was conducted to evaluate the effect of orally administered Compound A HBr on blood pressure for the treatment of hypertension in male and female subjects ≥18 years of age.
The study consists of two parts. For enrollment into Part 1 of the study, a subject's value of plasma renin activity (PRA) must be ≤1 ng/mL/h based on morning measurement. If the value of PRA >1 ng/mL/h based on morning measurement, then subjects may be eligible to enter Part 2 of the study.
For Part 1, 163 enrolled subjects ≥18 years of age were randomized into 6 equal treatment groups (1:1:1:1:1:1) to 12.5 mg BID, 25 mg BID, 12.5 mg QD, 50 mg QD, 100 mg QD, or placebo. After a review of interim clinical data, the 2 lowest dose levels (12.5 mg QD and 12.5 mg BID) were stopped for future randomization due to a lack of consistent meaningful reduction of blood pressure, but the patients randomized to that point remained in the study through completion. Thus, after the review of interim clinical data, subjects were randomized into 4 equal treatment groups (1:1:1:1) to 25 mg BID, 50 mg QD, 100 mg QD, or placebo.
For Part 2, 36 enrolled subjects ≥18 years of age were randomized (5:1) to either 100 mg QD Compound A HBr or placebo such that the Compound A HBr treatment group consisted of approximately 30 subjects and the placebo treatment group will consist of approximately 6 subjects.
Subjects orally administered the assigned study drug (Compound A HBr or placebo) according to the assigned dosing regimen for 8 weeks beginning on Study Day 1. All subjects in Part 1 (regardless of dosing group) received BID dosing to preserve the integrity of the blind; active drug is administered as the morning dose for all QD dose groups. Subjects returned to the research facility or were seen by the clinical investigator or approved home health care professional at the end of Study Weeks 1, 2, 3, 4, 5, 6, 7, and 8 (±2 days) for protocol-defined efficacy and safety assessments and procedures, assessment of adverse events (AEs), and confirmation of compliance with study drug usage. Subjects also completed a telephone visit and blood pressure (BP) check at home approximately 3 days post last dose of study drug. Subjects attended up to 14 full clinic visits, including a pre-Screening visit, a Screening/start of Placebo Run-in visit, a second visit during Placebo Run-in, a clinic visit to initiate the ABPM procedure, a Randomization visit, 8 weekly visits during double-blind treatment, and an end-of-study visit scheduled 4 weeks after the last study treatment for final efficacy and safety assessments.
An automated oscillometric sphygmomanometer device was used to measure the subjects' systolic and diastolic blood pressure in office after approximately 5 minutes of rest in the seated position.
The primary endpoint is the change in office-measured (mean of last 2 of 5 unattended measurements using an automated oscillometric sphygmomanometer device after approximately 5 minutes of rest in the seated position) systolic blood pressure (SBP) from baseline to the end of Study Week 8.
Secondary endpoints of this study were: • (a) Change in 24-hour ambulatory blood pressure monitoring (ABPM) parameters (systolic and diastolic) from baseline to the end of Study Week 7. • (b) Change in office-measured SBP from baseline to the end of Study Weeks 1, 2, 3, 4, 5, 6, and 7. • (c) Change in office-measured diastolic blood pressure (DBP) from baseline to the end of Study Weeks 1, 2, 3, 4, 5, 6, 7, and 8. • (d) Proportion of subjects who achieve office-measured BP of ≤130/80 mm Hg by the end of Study Week 8.

SMILES: CC(=O)N[C@H]1CC[C@H](NC(=O)CN2CCN(c3nncc(-c4ccc(C)cc4)n3)CC2)CC1 [Compound A HBr]
- Subjects with seated AOBP SBP/DBP ≤130/80 mmHg: No (100 mg QD, Week 8, Part 2, FAS): 14 (45.2) n (%)
- Subjects with seated AOBP SBP/DBP ≤130/80 mmHg: Yes (100 mg QD, Week 8, Part 2, FAS): 17 (54.8) n (%)
- Placebo-adjusted reduction in AOBP SBP, exploratory MMRM analysis by BMI (Part 1 50 mg QD cohort): −16.7 mmHg
- Placebo-adjusted reduction in AOBP SBP, exploratory MMRM analysis by BMI (Part 1 100 mg QD cohort): −12.3 mmHg
- Mean (SD) Automated Office-Measured Systolic Blood Pressure at Wk 8 (ACEi/ARB No): 131.50 (16.22) mmHg
- Mean (SD) Change from Baseline at Week 8 in Automated Office-Measured Systolic Blood Pressure (ACEi/ARB No): −18.75 (21.77) mmHg
- Mean (SD) Automated Office-Measured Systolic Blood Pressure at Wk 8 (ACEi/ARB Yes): 132.00 (12.59) mmHg
- Mean (SD) Change from Baseline at Week 8 in Automated Office-Measured Systolic Blood Pressure (ACEi/ARB Yes): −12.47 (17.09) mmHg
- Mean (SD) Automated Office-Measured Diastolic Blood Pressure at Wk 8 (ACEi/ARBs No): 76.25 (12.37) mmHg
- Mean (SD) Change from Baseline at Week 8 in Automated Office-Measured Diastolic Blood Pressure (ACEi/ARBs No): −4.00 (8.79) mmHg
- Mean (SD) Automated Office-Measured Diastolic Blood Pressure at Wk 8 (ACEi/ARBs Yes): 74.93 (9.86) mmHg
- Mean (SD) Change from Baseline at Week 8 in Automated Office-Measured Diastolic Blood Pressure (ACEi/ARBs Yes): −6.33 (9.02) mmHg
- Mean (SD) Automated Office-Measured Diastolic Blood Pressure at Wk 8 (AHTs 2): 79.67 (11.78) mmHg
- Mean (SD) Automated Office-Measured Systolic Blood Pressure at Wk 8 (AHTs 2): 136.33 (11.76) mmHg
- Mean (SD) Change from Baseline at Week 8 in Automated Office-Measured Diastolic Blood Pressure (AHTs 2): −5.25 (7.78) mmHg
- Mean (SD) Change from Baseline at Week 8 in Automated Office-Measured Systolic Blood Pressure (AHTs 2): −8.33 (13.28) mmHg
- Mean (SD) Automated Office-Measured Diastolic Blood Pressure at Wk 8 (AHTs ≥3): 73.15 (8.93) mmHg
- Mean (SD) Automated Office-Measured Systolic Blood Pressure at Wk 8 (AHTs ≥3): 129.85 (13.37) mmHg
- Mean (SD) Change from Baseline at Week 8 in Automated Office-Measured Diastolic Blood Pressure (AHTs ≥3): −6.12 (9.49) mmHg
- Mean (SD) Change from Baseline at Week 8 in Automated Office-Measured Systolic Blood Pressure (AHTs ≥3): −16.31 (19.35) mmHg
- Mean (SD) Automated Office-Measured Diastolic Blood Pressure at Wk 8 (Age 65-79 yr): 76.18 (7.87) mmHg
- Mean (SD) Automated Office-Measured Systolic Blood Pressure at Wk 8 (Age 65-79 yr): 135.73 (11.26) mmHg
- Mean (SD) Change from Baseline at Week 8 in Automated Office-Measured Diastolic Blood Pressure (Age 65-79 yr): −3.18 (7.91) mmHg
- Mean (SD) Change from Baseline at Week 8 in Automated Office-Measured Systolic Blood Pressure (Age 65-79 yr): −12.77 (19.08) mmHg
- Mean (SD) Automated Office-Measured Diastolic Blood Pressure at Wk 8 (Age <65 yr): 79.17 (9.58) mmHg
- Mean (SD) Automated Office-Measured Systolic Blood Pressure at Wk 8 (Age <65 yr): 132.17 (11.13) mmHg
- Mean (SD) Change from Baseline at Week 8 in Automated Office-Measured Diastolic Blood Pressure (Age <65 yr): −5.67 (5.02) mmHg
- Mean (SD) Change from Baseline at Week 8 in Automated Office-Measured Systolic Blood Pressure (Age <65 yr): −6.92 (7.84) mmHg
- Mean (SD) Automated Office-Measured Diastolic Blood Pressure at Wk 8 (Age ≥80 yr): 58.00 (7.07) mmHg
- Mean (SD) Automated Office-Measured Systolic Blood Pressure at Wk 8 (Age ≥80 yr): 110.00 (1.41) mmHg
- Mean (SD) Change from Baseline at Week 8 in Automated Office-Measured Diastolic Blood Pressure (Age ≥80 yr): −21.00 (9.90) mmHg
- Mean (SD) Change from Baseline at Week 8 in Automated Office-Measured Systolic Blood Pressure (Age ≥80 yr): −40.00 (4.24) mmHg
- Mean (SD) Automated Office-Measured Diastolic Blood Pressure at Wk 8 (BMI 25−30 kg/m^2): 71.75 (9.07) mmHg
- Mean (SD) Change from Baseline at Week 8 in Automated Office-Measured Diastolic Blood Pressure (BMI 25−30 kg/m^2): −8.00 (7.56) mmHg
- Mean (SD) Automated Office-Measured Diastolic Blood Pressure at Wk 8 (BMI <25 kg/m^2): 92.00 (NE) mmHg
- Mean (SD) Change from Baseline at Week 8 in Automated Office-Measured Diastolic Blood Pressure (BMI <25 kg/m^2): 6.00 (NE) mmHg
- Mean (SD) Automated Office-Measured Diastolic Blood Pressure at Wk 8 (BMI >30 kg/m^2): 75.00 (9.80) mmHg
- Mean (SD) Change from Baseline at Week 8 in Automated Office-Measured Diastolic Blood Pressure (BMI >30 kg/m^2): −6.07 (9.01) mmHg
- Mean (SD) Automated Office-Measured Systolic Blood Pressure at Wk 8 (BMI at baseline 25-30 kg/m^2): 125.50 (14.89) mmHg
- Mean (SD) Change from Baseline at Week 8 in Automated Office-Measured Systolic Blood Pressure (BMI at baseline 25-30 kg/m^2): −23.88 (24.55) mmHg
- Mean (SD) Automated Office-Measured Systolic Blood Pressure at Wk 8 (BMI at baseline <25 kg/m^2): 150.00 (NE) mmHg
- Mean (SD) Change from Baseline at Week 8 in Automated Office-Measured Systolic Blood Pressure (BMI at baseline <25 kg/m^2): 2.50 (NE) mmHg
- Mean (SD) Automated Office-Measured Systolic Blood Pressure at Wk 8 (BMI at baseline >30 kg/m^2): 132.43 (11.93) mmHg
- Mean (SD) Change from Baseline at Week 8 in Automated Office-Measured Systolic Blood Pressure (BMI at baseline >30 kg/m^2): −12.07 (15.48) mmHg
- Mean (SD) Automated Office-Measured Diastolic Blood Pressure at Wk 8 (Race Black or AA): 79.14 (8.49) mmHg
- Mean (SD) Automated Office-Measured Systolic Blood Pressure at Wk 8 (Race Black or AA): 137.71 (13.50) mmHg
